Measurements published in US9034874B2, “Carbamate/urea derivatives” (NOVARTIS AG, priority 2012, dated 2015).
Where two headings read alike, the source gives them in different places.

Legend:
[1] = molecular target: T1, human H3 receptors (Homo sapiens (Human), UniProt Q9Y5N1); assay: Potency assessment: blockade of (R)-alpha-methylhistamine-mediated cAMP production (LANCE Ultra cAMP kit); assay type: cell-based; settings: CHO cells expressing human H3 receptors
Experimental: The potency of compounds of the invention as H3 receptor antagonists can be assessed by measuring the blockade of (R)-alpha-methylhistamine-mediated cAMP production utilizing a LANCE Ultra cAMP kit (PE #TRF0263) in CHO cells expressing human H3 receptors (GenBank: BC096840; Strausberg R L et al, Proc. Natl. Acad. Sci. U.S.A. 99(26), 16899-16903; 2002).
2. Preparation of assay plate: Different concentrations of the compounds of the invention (0.01-1000 nM), H3 positive controls and cAMP calibration standards; […] Forskolin (CALBIOCHEM #344270); 5 μM (R)-alpha-methylhistamine (H3 receptor agonist); 1% DMSO (SIGMA #D2650); total volume: 95 nl.
3. Preparation of the cell solution: Collect cells with stimulation buffer, final density: 100,000 cells/ml.
4. Reaction: (a) transfer 10 μl of cell solution to assay plate, (b) centrifuge at 600 rpm for 3 min and incubate 50 min at room temperature, (c) add 5 μL 4× Eu-cAMP tracer solution (60 μl Eu-cAMP tracer stock solution+2.94 ml cAMP detection buffer) and 5 μL 4× ULight™-anti-cAMP solution (20 μl […]+2.98 ml cAMP detection buffer) to assay plate.
5. Reading plate on EnVision: flash energy: 100%; excitation filter: 111 UV2 320; emission filter: 203 (Eu 615) and 205 (APC 665); number of laser flashes: 20; window: 100 μs; laser mirror module: 445 or 446; laser cycle: 16,600 μs.
6. Data analysis by GraphPad Prism: log (compound concentration) vs. response; variable slope.

[2] = molecular target: T1, human H3 receptors; assay: Affinity assessment: displacement of [3H]-N-α-Methylhistamine binding to membranes; settings: membranes containing human H3 receptors, radioligand [3H]-N-α-Methylhistamine
Experimental: The affinity of compounds of the invention to the H3 receptor can be assessed by measuring displacement of binding of the radioligand [3H]-N-α-Methylhistamine (PerkinElmer, #NET1027250UC) to membranes containing human H3 receptors (PerkinElmer, #ES-392-M400UA; GenBank: NM_007232.2; Hill S J et al, International Union of Pharmacology XIII. Classification of histamine receptors, Pharmacol Rev, 49(3), 253-278, 1997).
2. Compound serial dilution: Dilution was performed by BioTek Precision on compound dilution plate. Compound concentrations start at 5 or 10 μM, 10 point dose titrations with 3- or 5-fold serial dilutions.
3. Preparation of 2× membrane solution (25 ml): 1.25 ml human Histamine H3 receptor stock, 23.75 ml assay buffer.
4. Preparation of 2× solution of [3H]-N-α-methylhistamine (25 ml): 4.27 μl [3H]-N-α-methylhistamine stock, 25 ml assay buffer.
5. Assemble binding reaction: (a) transfer 1 μl of compound solution, 1 μl 100% DMSO and 1 μl 1 M (R)(−)-α-Methylhistamine (Sigma, #H128) to the reaction plate at room temperature, (b) transfer 50 μl of 2× protein solution to reaction plate, (c) transfer 49 μl of 2× radioligand solution to reaction plate (Corning® 96 well EIA/RIA plate; Sigma, #CLS3797).
6. Cover the reaction plate with a TopSeal™-A film (Perkin Elmer, #6005185) and incubate at 28° C. for 120 min. Equilibrate Zeba Spin Desalting Plates (Thermo Scientific, #89808) to room temperature for 120 min.
7. Remove the sealing material from the bottom of the filtration plate. Place the plate on a wash plate. Centrifuge at 1000 g for 2 min to remove the storage buffer at room temperature.
8. Transfer 70 μl binding reaction from reaction plate into filtration plates. Place the filtration plates on top of collection plate. Centrifuge the plate assembly at 1000 g for 2 min to collect the protein with bound radioligand. Add 200 μl of Microscint-40 (PerkinElmer, #6013641-1L) to each well of the collection plate. Cover the plates with TopSeal™-A film.
9. Read the plates on Wallac Microbeta Trilux 2450, Instrument settings: counting mode: CPM, counting time: 2 min.
10. Data analysis: GraphPad Prism: log (compound concentration) vs. response; variable slope. The Ki is calculated based on Chang and Prusoff: Ki=IC50/{1+([radioligand]/Kd)}

[3] = Solubility of solid forms in aqueous media; assay type: physicochemical

T1 sequence (Q9Y5N1 whole entry): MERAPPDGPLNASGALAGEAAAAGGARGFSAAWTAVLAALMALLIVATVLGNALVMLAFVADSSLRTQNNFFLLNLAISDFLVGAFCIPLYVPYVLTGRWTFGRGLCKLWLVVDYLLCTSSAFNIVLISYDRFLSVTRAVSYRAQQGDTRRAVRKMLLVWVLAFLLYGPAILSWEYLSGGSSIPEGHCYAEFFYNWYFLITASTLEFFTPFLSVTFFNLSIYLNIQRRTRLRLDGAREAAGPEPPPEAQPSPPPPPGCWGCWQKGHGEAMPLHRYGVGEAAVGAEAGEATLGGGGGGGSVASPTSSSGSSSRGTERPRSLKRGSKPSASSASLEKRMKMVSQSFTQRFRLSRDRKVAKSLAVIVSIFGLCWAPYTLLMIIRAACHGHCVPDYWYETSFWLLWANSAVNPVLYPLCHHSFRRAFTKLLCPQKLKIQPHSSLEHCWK

Ki [1] | Ki [2] | solubility in aqueous media ([3]; across a pH range from about 1-8) | solubility in aqueous media [3] | SMILES
2.3 nM | 25 nM |  |  | O=C(OC1CCN(c2ccc(=O)[nH]n2)CC1)N1CCN(C2CC2)CC1 [Example 1.4, 1-(6-oxo-1,6-dihydropyridazin-3-yl)piperidin-4-yl 4-cyclopropylpiperazine-1-carboxylate]
1.1 nM | 25 nM |  |  | Cn1nc(N2CCC(OC(=O)N3CCN(C4CCC4)CC3)CC2)ccc1=O [Example 1.5, 1-(1-methyl-6-oxo-1,6-dihydropyridazin-3-yl)piperidin-4-yl 4-cyclobutylpiperazine-1-carboxylate]
2.9 nM | 44 nM |  |  | CCn1nc(N2CCC(OC(=O)N3CCN(C(C)C)CC3)CC2)ccc1=O [Example 1.6, 1-(1-ethyl-6-oxo-1,6-dihydropyridazin-3-yl)piperidin-4-yl 4-isopropylpiperazine-1-carboxylate]
3.1 nM | 20 nM |  |  | CC(C)N1CCN(C(=O)OC2CCN(c3ccn(C)c(=O)c3)CC2)CC1 [Example 2.1, 1-(1-methyl-2-oxo-1,2-dihydropyridin-4-yl)piperidin-4-yl 4-isopropylpiperazine-1-carboxylate]
0.5 nM | 25 nM |  |  | O=C(OC1CCN(c2cc[nH]c(=O)c2)CC1)N1CCN(C2CCC2)CC1 [Example 2.2, 1-(2-oxo-1,2-dihydropyridin-4-yl)piperidin-4-yl 4-cyclobutylpiperazine-1-carboxylate]
0.9 nM | 12 nM |  |  | CC(C)N1CCN(C(=O)OC2CCN(c3cc[nH]c(=O)c3)CC2)CC1 [Example 2.3, 1-(2-oxo-1,2-dihydropyridin-4-yl)piperidin-4-yl 4-isopropylpiperazine-1-carboxylate]
1.6 nM | 1.2 nM |  |  | CC(C)N1CCN(C(=O)OC2CCN(c3ccc(=O)[nH]c3)CC2)CC1 [Example 3.1, 1-(6-oxo-1,6-dihydropyridin-3-yl)piperidin-4-yl 4-isopropylpiperazine-1-carboxylate]
 |  | good solubility |  | Cn1nc(N2CCC(OC(=O)N3CCN(C4CCC4)CC3)CC2)ccc1=O [Form A of the free from, 1-(1-methyl-6-oxo-1,6-dihydropyridazin-3-yl)piperidin-4-yl 4-cyclobutylpiperazine-1-carboxylate]
 |  |  | good solubility | Cn1nc(N2CCC(OC(=O)N3CCN(C4CCC4)CC3)CC2)ccc1=O [Form B of the free from, 1-(1-methyl-6-oxo-1,6-dihydropyridazin-3-yl)piperidin-4-yl 4-cyclobutylpiperazine-1-carboxylate]
